{
  "source": "paper PMC10892719",
  "about": "(Pharmaceutics, 2024)",
  "key": {"[1]": {"target": "T1, electric eel acetylcholinesterase (eeAChE) (Electrophorus electricus, UniProt O42275)", "T1 construct": "purchased Sigma-Aldrich (Steinheim, Germany)", "T1 sequence (O42275 24-633)": "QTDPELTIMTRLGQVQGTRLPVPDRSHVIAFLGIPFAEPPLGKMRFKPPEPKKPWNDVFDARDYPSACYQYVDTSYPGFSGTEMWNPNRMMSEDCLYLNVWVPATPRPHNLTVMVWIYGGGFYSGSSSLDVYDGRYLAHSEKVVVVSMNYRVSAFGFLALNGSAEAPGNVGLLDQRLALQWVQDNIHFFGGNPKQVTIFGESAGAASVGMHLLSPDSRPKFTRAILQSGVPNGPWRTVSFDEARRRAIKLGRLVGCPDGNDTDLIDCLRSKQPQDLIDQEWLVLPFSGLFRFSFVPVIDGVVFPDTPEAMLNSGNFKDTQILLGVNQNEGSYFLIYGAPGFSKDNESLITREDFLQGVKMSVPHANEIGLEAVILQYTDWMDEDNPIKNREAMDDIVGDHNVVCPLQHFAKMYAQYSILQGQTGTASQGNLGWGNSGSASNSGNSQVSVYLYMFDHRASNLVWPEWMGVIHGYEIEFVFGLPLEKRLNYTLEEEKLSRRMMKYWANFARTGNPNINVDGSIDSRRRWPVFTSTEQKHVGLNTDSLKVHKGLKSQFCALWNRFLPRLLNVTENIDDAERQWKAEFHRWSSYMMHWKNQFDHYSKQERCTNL", "experiment": "AChE inhibition, adapted Ellman method", "type": "biochemical", "settings": "mean of two independent experiments ± SD, read-out: AChE Inhib IC50", "method": "(§1) The enzyme inhibition of electric eel acetylcholinesterase (eeAChE) and equine butyrylcholinesterase (eqBChE) by our compounds was evaluated through an adaptation of Elmman´s method using reagents from Sigma-Aldrich (Steinheim, Germany). Stock solutions of each compound (1 mg) in MeOH (1 mL) were prepared and then working solutions for each ligand were obtained by the corresponding dilution of the stock solutions. A control measurement with 5 replicates (without ligand) and a calibration curve of 5 points with 3 replicates per point was performed. The preparation of each solution involved fixed volumes of 4-(2-hydroxyethyl)-1-piperazine-ethanesulfonic acid (HEPES) and cholinesterase (eeAChE or eqBChE) with different volumes of ligand solution, and it was left to rest for 15 min immediately after adding the cholinesterase. A blank solution containing HEPES and MeOH was also prepared at the same time. […] The slope for each calibration point (absorbance versus reaction time) was determined and the inhibition for each compound was calculated by using the following equation: %Inhibition=100−(vi/v0×100) where vi is the reaction rate (slope) for each point of the calibrate with ligand and v0 is the initial reaction rate (slope) for the control point (without ligand). […] Experiments were performed twice for each compound."}, "[2]": {"target": "T2, equine butyrylcholinesterase (eqBChE) (Equus caballus, UniProt P81908)", "T2 construct": "purchased Sigma-Aldrich (Steinheim, Germany)", "T2 sequence (P81908 whole entry)": "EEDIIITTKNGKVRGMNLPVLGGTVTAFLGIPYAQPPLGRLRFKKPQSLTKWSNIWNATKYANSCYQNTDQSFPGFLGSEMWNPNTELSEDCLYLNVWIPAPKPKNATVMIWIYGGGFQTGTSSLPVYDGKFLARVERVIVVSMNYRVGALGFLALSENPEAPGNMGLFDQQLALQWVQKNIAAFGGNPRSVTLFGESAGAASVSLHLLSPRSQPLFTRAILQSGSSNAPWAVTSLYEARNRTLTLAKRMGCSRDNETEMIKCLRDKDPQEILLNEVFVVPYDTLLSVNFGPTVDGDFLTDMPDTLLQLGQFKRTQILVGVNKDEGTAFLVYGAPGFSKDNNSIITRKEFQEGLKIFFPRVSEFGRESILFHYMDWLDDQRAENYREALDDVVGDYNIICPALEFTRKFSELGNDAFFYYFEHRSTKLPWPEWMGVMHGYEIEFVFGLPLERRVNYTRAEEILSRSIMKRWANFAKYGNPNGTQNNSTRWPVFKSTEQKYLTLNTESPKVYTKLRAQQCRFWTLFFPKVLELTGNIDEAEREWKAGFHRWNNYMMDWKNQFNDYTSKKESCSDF", "experiment": "BChE inhibition, adapted Ellman method", "type": "biochemical", "settings": "for SI (selectivity index): IC50 (AChE)/IC50 (BChE); for IC50: eqBChE, mean of two independent experiments ± SD, read-out: BChE Inhib IC50", "method": "as §1"}, "Aβ1-42": {"target": "T3, Aβ1-42 (Homo sapiens, UniProt P05067)", "T3 construct": "purchased Genecust, Boynes, France", "T3 sequence (P05067 672-713 limits assumed)": "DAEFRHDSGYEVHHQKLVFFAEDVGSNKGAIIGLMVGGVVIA", "experiment": "Inhibition of Aβ1-42 self-aggregation, thioflavin T fluorescence", "type": "biochemical", "settings": "Cinhibitor = 20 µM, Aβ1-42 40 µM, 37 °C, 24 h, read-out: Aβ42 Self-Aggreg. Inhib", "method": "The Aβ peptide (Genecust, Boynes, France) was treated with 1,1,1,3,3,3-hexafluoropropan-2-ol (HFIP, Aldrich, Steinheim, Germany) and dissolved in a CH3CN/Na2CO3 (300 µM)/NaOH (250 µM) ([…], v/v/v) mixture in order to have a stable stock solution of Aβ1-42 with concentration 500 µM.\nSolutions of the assayed compounds (0.5 mg/mL) were firstly prepared in 60% (v/v) DMSO/MeOH medium and then diluted in phosphate buffer (0.215 M, pH 8.0) to a concentration of 120 µM. The Aβ1-42 aggregation inhibition assays were performed according to a reported method based on the fluorescence emission of thioflavin T (ThT, Aldrich Steinheim, Germany). Therefore, Aβ1-42 (40 µM) was incubated at 37 °C for 24 h in phosphate buffer and in the presence or absence of each ligand (20 µM). Then, the samples were added to a 96-well plate with 180 µL of 5 µM ThT in 50 mM glycine-NaOH (pH 8.5) buffer. Blank samples were identically prepared for each concentration but in the absence of the peptide. The ThT fluorescence was measured at 445 nm (excitation) and 485 nm (emission). The percent of aggregation inhibition was calculated by the following equation:I% = 100 − (IFi/IF0 × 100), in which IFi and IF0 are the fluorescence intensities, in the presence and the absence of the tested compound, subtracted from the fluorescence intensities due to the respective blanks. The reported values were obtained as the mean ± SEM of two different experiments performed in duplicate.\nThe inhibitory capacity of the RIV-IND hybrids towards Aβ42 self-aggregation was evaluated in vitro by molecular fluorescence spectroscopy through the thioflavin T (ThT) method. In fact, since there is an increase in the absorbance and emission of ThT when it binds to amyloid fibrils, it is possible to determine the percent of Aβ42 self-aggregation (see Table 1). The assays were performed in the presence of 20 µM of inhibitor to overcome the solubility limitations of some compounds in the phosphate buffer aqueous medium."}, "SH-SY5Y cells": {"test_system": "SH-SY5Y cells", "experiment": "Cell viability dose-response screening, MTT", "type": "cell-based, human", "method": "Cell viability, following treatment with the compounds, was determined using the colorimetric MTT (3-(4,5-dimethylthiazol-2-yl)-2,5-diphenyltetrazolium bromide) assay. The tested compounds (5a1-3, 5b1-3, 5c1-3) were dissolved in DMSO to produce stock solutions of 25 mM and stored at −20 °C. A concentration screening was performed for 0.5 µM to 20 µM final concentrations to choose the highest nontoxic concentration. SH-SY5Y human neuroblastoma cell line (ATCC-CRL-2266) was cultured in Dulbecco’s modified Eagle’s medium (DMEM) (Gibco-Invitrogen, Life Technologies Ltd., Waltham, MA, USA) with heat-inactivated fetal calf serum (10%), penicillin (50 U/mL) and streptomycin (50 µg/mL) at 37 °C with 5% CO2. Cells were plated at 0.15 × 10^6 cells/mL one day prior to the start of the experiment. The cells were then incubated with the appropriate concentration of the compounds for 24 h. After the incubation period, the cells were washed once with PBS and incubated with 200 µL MTT (0.5 mg/mL) for 2 h at 37 °C with 5% CO2. During this period, cellular dehydrogenase successfully metabolized MTT into formazan, which was then solubilized using 200 µL of 0.04 M HCl/isopropanol. Absorbance was measured at 570 nm.\nThe new RIV-IND hybrids were tested to determine their protective role in the toxicity induced by either Aβ1-42 peptides or iron/ascorbate. SH-SY5Y cells were incubated with a set of concentrations of each of the compounds and a dose–response curve was constructed to select the highest nontoxic concentration.\nFigure 3 Dose–response screening of RIV-IND compounds 5a1-3, 5b1-3 and 5c1-3 measured by MTT reduction ability on SH-SY5Y cells treated with different concentrations of the compounds for 24 h. Results are expressed relatively to untreated cells, with the mean ± standard error of the mean (SEM) derived from three independent experiments. * p < 0.05; ** p < 0.01; *** p < 0.001 compared to untreated cells. (The dot line indicates 100% cellular viability)."}, "[3]": {"experiment": "DPPH free radical scavenging (antioxidant) assay", "settings": "read-out: Antioxidant Activity EC50; DPPH method, mean of three independent experiments", "protocol": "The radical scavenging activity (antioxidant capacity) of the herein-developed RIV-IND hybrids was determined by the DPPH method [33]. Working solutions of the compounds in 10% DMSO/MeOH (, HoneywellSeelze, Germany) medium were used to prepare 5 methanolic solutions (5 points, 3 replicates) containing DPPH (Sigma-Aldrich, Steinheim, Germany) and different concentrations of compound up to 3.5 mL total volume. […] The respective antioxidant activity (%AA) was calculated using the following equation: %AA=ADPPH−Aligand/ADPPH×100\nThe reported results were obtained as the mean values of three independent experiments.\nThe new RIV-IND compounds were also screened for their radical scavenging activity (EC50), according to the 2,2-diphenyl-1-picrylhydrazyl (DPPH) free radical method."}},
  "data": [
    {"smiles": "CCN(C)C(=O)Oc1cccc(NC(=O)c2cc3cccc(O)c3[nH]2)c1", "note": "[Compound 5a3, 3-(7-Hydroxy-1H-indole-2-carboxamido)phenyl ethyl(methyl)carbamate]", "values": [
      {"measurement": "IC50", "setting": "[1]", "value": "10.9 ± 0.1", "unit": "µM"},
      {"measurement": "SI (selectivity index)", "setting": "[2]", "value": 1.05},
      {"measurement": "IC50", "setting": "[2]", "value": "10.4 ± 0.4", "unit": "µM"},
      {"measurement": "inhibition at 20 µM", "setting": "Aβ1-42", "value": 50.3, "unit": "%"},
      {"measurement": "highest nontoxic concentration", "setting": "SH-SY5Y cells; 24 h, screening 0.5 µM to 20 µM", "value": 2.5, "unit": "µM"},
      {"measurement": "EC50", "setting": "[3]", "value": "14.5 ± 0.5", "unit": "µM"}
    ]},
    {"smiles": "CCN(C)C(=O)Oc1cccc(CNC(=O)c2cc3ccccc3[nH]2)c1", "note": "[Compound 5b1, 3-((1H-indole-2-carboxamido)methyl)phenyl ethylmethylcarbamate]", "values": [
      {"measurement": "IC50", "setting": "[1]", "value": "78.4 ± 0.8", "unit": "µM"},
      {"measurement": "SI (selectivity index)", "setting": "[2]", "value": 9.4},
      {"measurement": "IC50", "setting": "[2]", "value": "8.3 ± 0.1", "unit": "µM"},
      {"measurement": "inhibition at 20 µM", "setting": "Aβ1-42", "value": 19.9, "unit": "%"},
      {"measurement": "highest nontoxic concentration", "setting": "SH-SY5Y cells; when used with Aβ1-42", "value": 2.5, "unit": "µM"},
      {"measurement": "highest nontoxic concentration", "setting": "SH-SY5Y cells; when used with iron/ascorbate", "value": 1, "unit": "µM"},
      {"measurement": "EC50", "setting": "[3]", "value": "> 2000", "unit": "µM"}
    ]}
  ]
}
